In PubChem BioAssay AID1963841 (Molecular Pharmacology Branch, DTP, NCI, 2024):
Several values for one entry are separate records, joined by “and”; a condition that tells them apart may be missing. Identical values can stand only once.

Tested on: 439559-082-T-J2-PDC spheroid viability
Assay: Anticancer human tumor 439559-082-T-J2-PDC patient-derived colon adenocarcinoma cell line growth inhibition [POLQ]
Conditions: spheroids with HUVEC and MSC; for viability, T/C: stronger effect = lower value
In short: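 Three-cell-type spheroids modelling solid tumor plus stroma served as the readout system; POL inhibitors were tested individually and in combination, concentration ranges set by clinical Cmax where known.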
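Also: spheroids exposed to compounds for seven days before readout.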
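For viability, T/C in this document: 100% = DMSO vehicle control viability.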

`C#Cc1c(F)ccc2cc(O)cc(-c3ncc4c(N5CC6CCC(C5)N6)nc(OCC56CCCN5CC(F)C6)nc4c3F)c12` (configuration not stated) was tested, and the viability, T/C (compound 0.0316 µM) was 98.3% and 86.1% and 91.5%, the viability, T/C (compound 0.1 µM) was 87.7% and 85.2% and 81.3% and the viability, T/C (compound 0.316 µM) was 72.3% and 64.9% and 72.9%. For the same molecule, the viability, T/C (compound 1 µM) was 66.5% and 68.4% and 70.6%, the viability, T/C (compound 3.16 µM) was 59.8% and 69.2% and 61.3% and the viability, T/C (compound 10 µM) was 53% and 67.8% and 51%. The IC50 (curve of compound) was greater than 10 µM.
